Our source for the IC50 values is patent US11103519B2, “Quinone-methide precursors with bodipy chromophore, method of preparation, biological activity and application in fluorescent labelling” (Rudjer Boskovic Institute, priority 2016, dated 2021).

The subject of experiment [1] is HCT 116 (colon carcinoma). As to conditions: read-out: IC50, the concentration that causes 50% growth inhibition, HCT116, 72 h incubation, MTT. Here is the method: The described assay was used to test the effects of test compounds on the proliferation of various human tumor cell lines, whereby cytostatic and cytotoxic effects on cells can be differentiated. The experiments were carried out on human cell lines, which were derived from 3 tumor types: MCF-7 (breast carcinoma), HCT 116 (colon carcinoma), H 460 (lung carcinoma).
Cell lines were cultured as monolayers and maintained in Dulbecco's modified Eagle medium (DMEM), supplemented with 10% fetal bovine serum (FBS), 2 mM L-glutamine, 100 U/ml penicillin and 100 μg/ml streptomycin in a humidified atmosphere with 5% CO2 at 37° C.
The cell lines were inoculated onto a series of standard 96-well microtiter plates on day 0, at 1×10^4 to 3×10^4 cells/ml, depending on the doubling times of the specific cell line. Test compounds were added next day to the cell lines in five consecutive 10-fold dilutions (10^−8 to 10^−4 M) and incubated for a further 72 hours. Working dilutions were freshly prepared on the day of testing. The solvent (DMSO) was also tested for eventual inhibitory activity by adjusting its concentration to be the same as in working concentrations.
For each cell line one of the plates was left in the dark, while the other was irradiated in a Luzchem reactor (6 lamps 350 nm, 5 min; or 6 lamps 420 nm, 15 min, visible light, 15 min) four hours after the addition of the test compounds and subsequently 24 h and 48 h after the first irradiation, as described above. After 72 hours of incubation the cell growth rate was evaluated by performing the MTT assay (Mossman, Methods Immunol, 1983, 65, 55-63), which detects dehydrogenase activity in viable cells. The MTT Cell Proliferation Assay is a colorimetric assay system, which measures the reduction of a tetrazolium component (MTT) into an insoluble formazan produced by mitochondria of viable cells. For this purpose the substance treated medium was discarded and MTT was added to each well in concentration of 20 μg/40 μl. After four hours of incubation the precipitates were dissolved in 160 μl of dimethylsulphoxide (DMSO). The absorbance (OD, optical density) was measured on a microplate reader at 570 nm. The absorbance is directly proportional to the cell viability. The percentage of growth (PG) of the cell lines was calculated according to one of the following two equations (according to the National Cancer Institute protocols, www.dtp.nci.nih.gov):
If (mean ODtest-mean ODtzero)≥0 then • PG=100×(mean ODtest-mean ODtzero)/(mean ODetrl-meanODtzero).
If (mean ODtest-mean ODtzero)<0 then: • PG=100×(mean ODtest-mean ODtzero)/ODtzero. where:
Mean ODtzero=the average of optical density measurements before exposure of cells to the test compound.
Mean ODtest=the average of optical density measurements after the desired period of time.
Mean ODetrl=the average of optical density measurements after the desired period of time with no exposure of cells to the test compound.
Each test point was performed in quadruplicate in three individual experiments. The results were expressed as IC50, a concentration necessary for 50% of proliferation inhibition. Each result is a mean value from three separate experiments. The IC50 measures the growth inhibitory power of the test agent and represents the concentration that causes 50% growth inhibition. […] Therefore, a “real” value for any of the response parameters is obtained only if at least one of the tested drug concentrations falls above, and likewise at least one falls below the respective reference value. If however, for a given cell line or test agent all of the tested concentrations produce PGs exceeding the respective reference level of effect (e.g. PG value of 50%), then the highest tested concentration is assigned as the default value. In the screening data report the default value is preceded by a “>” sign.

In the next experiment the test system is MCF-7 (breast carcinoma). In words: Antiproliferative MTT assay, MCF-7. Format: cell-based, human. The settings on record: 72 h incubation, read-out: IC50, the concentration that causes 50% growth inhibition. An excerpt:
(§1) The absorbance is directly proportional to the cell viability.
A general note: Tetrazolium dyes change colour on reduction, which living cells bring about.

In the next experiment the test system is H 460 (lung carcinoma). In words: Antiproliferative MTT assay, H 460. Type of experiment: cell-based, human. The settings on record: 72 h incubation, read-out: IC50, the concentration that causes 50% growth inhibition.
Description: as §1

Read-outs that look alike come from different tables or passages of the source. Bounds are passed on as bounds.

Turning to “4,4-difluoro-8-[3-(N,N-dimethylammoniummethyl)-4-hydroxyphenyl]-4-bora-3a,4a-diaza-s-indacene hydrochloride [Example 2]”, the IC50 in experiment [1] (Not irrad.) was greater than 100 µM; in experiment [1] (irradiated 350 nm 3 × 5 min) it was greater than 100 µM; in experiment [1] (irradiated 420 nm 3 × 15 min), 37 ± 7 µM; in experiment [1] (irradiated VIS 3 × 15 min), 89 ± 6 µM; with MCF-7 (breast carcinoma) (Not irrad.), no less than 100 µM; with MCF-7 (breast carcinoma) (irradiated 350 nm 3 × 5 min), no less than 100 µM. Also, the IC50 was 25 ± 6 µM in the experiment on MCF-7 (breast carcinoma) (irradiated 420 nm 3 × 15 min); 32 ± 25 µM with MCF-7 (breast carcinoma) (irradiated VIS 3 × 15 min); greater than 100 µM with H 460 (lung carcinoma) (Not irrad.); greater than 100 µM in the experiment with H 460 (lung carcinoma) (irradiated 350 nm 3 × 5 min); 30 ± 18 µM with H 460 (lung carcinoma) (irradiated 420 nm 3 × 15 min); 43 ± 6 µM with H 460 (lung carcinoma) (irradiated VIS 3 × 15 min).

In the case of “4,4-difluoro-1,5,7-trimethyl-343-(N,N-dimethylammoniummethyl)-4-hydroxyphenyl)-8-phenyl-4-bora-3a,4a-diaza-s-indacene hydrochloride [Example 7]”, the IC50 in experiment [1] (Not irrad.) was found to be 27 µM; in experiment [1] (irradiated VIS 3 × 15 min) it was 2 µM; in the experiment on MCF-7 (breast carcinoma) (Not irrad.), 22 ± 12 µM; with MCF-7 (breast carcinoma) (irradiated VIS 3 × 15 min), 2 ± 0.7 µM; in the experiment with H 460 (lung carcinoma) (Not irrad.) it was 20 ± 5 µM; in the experiment on H 460 (lung carcinoma) (irradiated VIS 3 × 15 min), 2 ± 0.7 µM.

Take “4,4-difluoro-1,3,5,7-tetramethyl-8-[3-(N,N-dimethylammoniummethyl)-4-hydroxyphenyl]-4-bora-3a,4a-diaza-s-indacene hydrochloride [Example 4]”: the IC50 in experiment [1] (Not irrad.) is 16 ± 1 µM; in experiment [1] (irradiated 350 nm 3 × 5 min) it was 11 ± 2 µM; in experiment [1] (irradiated 420 nm 3 × 15 min), 2 ± 0.4 µM; in experiment [1] (irradiated VIS 3 × 15 min), 2 ± 0.1 µM; in the experiment with MCF-7 (breast carcinoma) (Not irrad.) it was 13 ± 0.1 µM; in the experiment on MCF-7 (breast carcinoma) (irradiated 350 nm 3 × 5 min), 10 ± 0.6 µM. The IC50 in the experiment with MCF-7 (breast carcinoma) (irradiated 420 nm 3 × 15 min) was 2 ± 0.2 µM; with MCF-7 (breast carcinoma) (irradiated VIS 3 × 15 min), 1.6 ± 0.01 µM; with H 460 (lung carcinoma) (Not irrad.), 13 ± 0.2 µM; in the experiment with H 460 (lung carcinoma) (irradiated 350 nm 3 × 5 min), 5 ± 3 µM; in the experiment on H 460 (lung carcinoma) (irradiated 420 nm 3 × 15 min), 1 ± 0.1 µM; in the experiment on H 460 (lung carcinoma) (irradiated VIS 3 × 15 min) it was 0.9 ± 0.2 µM.
